Source: patent US20260258050A1, “IMMUNOMODULATOR” (HITGEN INC., priority 2023, published 2026)

The molecules below were run against T1, Human IL-17A (Homo sapiens, UniProt Q16552) (assay: IL-17A enzyme-linked immunosorbent assay (competitive ELISA, IL-17A/IL-17Ra receptor-ligand binding)). Settings: human IL-17A coated plate, human IL-17Ra, read-out: IC50, inhibitory activity of compounds on human IL-17A.
T1 sequence (Q16552 20-155 limits assumed): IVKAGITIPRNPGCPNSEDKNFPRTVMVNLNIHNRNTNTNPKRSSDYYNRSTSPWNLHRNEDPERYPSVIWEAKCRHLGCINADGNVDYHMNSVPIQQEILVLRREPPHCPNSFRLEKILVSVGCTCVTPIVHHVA
Design: purchased Sino Biological Inc. 12047-H07B
Procedure: Experimental Example 1 IL-17A Enzyme-Linked Immunosorbent Assay (ELISA)
The inhibitory effects of human IL-17A inhibitors on receptor-ligand binding were quantitatively determined by a competitive enzyme-linked immunosorbent assay (ELISA). The ELISA was performed through the following steps.
Human IL-17A (Sino Biological Inc., Cat #12047-H07B) was diluted with coating buffer (50 mM phosphate-buffered saline (PBS), pH 7.4) to give an IL-17A concentration of 0.2 μg/ml. 100 μL of the resulting solution was added to each well of a 96-well plate, and the plate was incubated at 37° C. for 30 min. In a blank group, 100 100 μL of the coating buffer was added instead of the IL-17A solution.
The plate was washed four times with 10 mM phosphate-buffered saline containing 0.05% Tween-20 (PBST, pH 7.4). 200 μL of PBST was used per well for each wash. After the final wash, the plate was tapped dry on absorbent paper.
Fresh 5% (w/v) skim milk solution was prepared before the experiment. For example, 5 g of skim milk powder (Bio-Rad, 170-6404) was completely dissolved in 100 mL of 10 mM PBST. 200 μL of the 5% (w/v) skim milk solution was added to each well, and the plate was incubated on a shaker at 25° C. for 30 min.
(S4) Preparation of 100× to-be-Tested Compound Solutions
During step (S3), the to-be-tested compound solutions were prepared, respectively. Each powdered compound was dissolved in dimethyl sulfoxide (DMSO) to reach a storage concentration of 10 mM. The to-be-tested compound solutions were then serially diluted four-fold with DMSO to obtain nine storage concentrations ranging from […].
(S6) Pre-incubation of IL-17A with to-be-tested compound solutions
89 μL of PBST and 1 μL of each of the to-be-tested compound solutions were added to each well and mixed. The plate was pre-incubated at 25° C. for 10 min. In the blank group and the control group, 1 μL of DMSO was added instead of the to-be-tested compound solutions.
(S7) Incubation with Human Interleukin-17 Receptor a (IL-17Ra)
10 μL of 16 nM human IL-17Ra (Sino Biological Inc., Cat #10895-H03H) was added, followed by incubation on a shaker at 25° C. for 30 min. The receptor solution was prepared in 10 mM PBST.
(S9) Incubation with Horseradish Peroxidase-Conjugated Antibody
100 μL of mouse anti-Fc tag horseradish peroxidase (HRP)-conjugated antibody (Sino Biological Inc., Cat #10702-MM01T-H) was added to each well. The plate was incubated on a shaker at 25° C. for 30 min. The antibody was diluted with 5% (w/v) skim milk solution at 1:5,000 (v/v).
100 μL of 3,3′,5,5′-tetramethylbenzidine (TMB) substrate solution (BD, Cat #555214) was added to each well. Substrate A and substrate B were freshly mixed at a volume ratio of 1:1 before use. The plate was incubated in the dark at 25° C. for 5-15 min.
(S12) Termination and Detection
The color reaction was terminated by addition of 2.5 M hydrochloric acid (HCl). Absorbance was measured at 450 nm using a BMG PHERStar microplate reader.
(S13) Calculation of Half-Maximal Inhibitory Concentration (IC50)
The relative percent residual activity at each compound concentration was calculated according to Equation 1. The IC50 value of each test compound was then calculated in GraphPad 6 using the equation for log(inhibitor) versus normalized response with variable slope, as shown in Equation 2.
relative percent residual activity (%)=[(absorbance of sample−absorbance of blank group)/(absorbance of control group−absorbance of blank group)]%. Equation 1: […]
The compounds prepared in the above examples were tested for IL-17A inhibitory activity according to the above method.

`Cc1[nH]nc2c1-c1cnc(NC(=O)[C@@H](NC(=O)c3ccnn3C(C)C)C(C3CC3)C3CC3)cc1CN(C(C)C(F)(F)F)C(=O)C2` (mixture of isomers) [compound 204] and `Cc1[nH]nc2c1-c1cnc(NC(=O)[C@@H](NC(=O)c3ccnn3C(C)C)C(C3CC3)C3CC3)cc1CN(C(C)C(F)(F)F)CC2` (mixture of isomers) [compound 205] cannot be ordered by IC50: ≤ 0.05 µM for the first, ≤ 0.05 µM for the second.

`Cc1[nH]nc2c1-c1cnc(NC(=O)C(NC(=O)c3conc3C(C)C)C(C3CC3)C3CC3)cc1CN(C(C)C(F)(F)F)C(=O)C2` (racemic) [compound 225] and `Cc1[nH]nc2c1-c1cc(F)c(NC(=O)[C@@H](NC(=O)c3conc3C(C)C)C(C3CC3)C3CC3)cc1CN(C(C)C(F)(F)F)C(=O)C2` (mixture of isomers) [compound 248] cannot be ordered by IC50: ≤ 0.05 µM for the first, ≤ 0.05 µM for the second.

`Cc1[nH]nc2c1-c1cnc(NC(=O)[C@@H](NC(=O)c3ccnn3CCCF)C(C3CC3)C3CC3)cc1CN(C(C)C(F)(F)F)C(=O)C2` (mixture of isomers) [compound 226] and `Cc1[nH]nc2c1-c1cc(F)c(NC(=O)[C@@H](NC(=O)c3ccnn3CCCF)C(C3CC3)C3CC3)cc1CN(C(C)C(F)(F)F)C(=O)C2` (mixture of isomers) [compound 249] cannot be ordered by IC50: ≤ 0.05 µM for the first, ≤ 0.05 µM for the second.

`Cc1[nH]nc2c1-c1cc(F)c(NC(=O)[C@@H](NC(=O)/C(F)=C\C(C)C)C(C3CC3)C3CC3)cc1CN(C(C)C(F)(F)F)C(=O)C2` (mixture of isomers) [compound 250] and `C=C(F)C(=O)N[C@H](C(=O)Nc1cc2c(cc1F)-c1c(n[nH]c1C)CC(=O)N(C(C)C(F)(F)F)C2)C(C1CC1)C1CC1` (mixture of isomers) [compound 253] cannot be ordered by IC50: ≤ 0.05 µM for the first, ≤ 0.05 µM for the second.

`Cc1[nH]nc2c1-c1cc(F)c(NC(=O)[C@@H](NC(=O)/C(F)=C\C3CC3)C(C3CC3)C3CC3)cc1CN(C(C)C(F)(F)F)C(=O)C2` (mixture of isomers) [compound 251] and `Cc1[nH]nc2c1-c1cnc(NC(=O)[C@@H](NC(=O)/C(F)=C\C3CC3)C(C3CC3)C3CC3)cc1CN(C(C)C(F)(F)F)C(=O)C2` (mixture of isomers) [compound 255] cannot be ordered by IC50: ≤ 0.05 µM for the first, ≤ 0.05 µM for the second.

`CC(C)=C(F)C(=O)N[C@H](C(=O)Nc1cc2c(cc1F)-c1c(n[nH]c1C)CC(=O)N(C(C)C(F)(F)F)C2)C(C1CC1)C1CC1` (mixture of isomers) [compound 252] and `CC(C)=C(F)C(=O)N[C@H](C(=O)Nc1cc2c(cn1)-c1c(n[nH]c1C)CC(=O)N(C(C)C(F)(F)F)C2)C(C1CC1)C1CC1` (mixture of isomers) [compound 256] cannot be ordered by IC50: ≤ 0.05 µM for the first, ≤ 0.05 µM for the second.

`Cc1[nH]nc2c1-c1cnc(NC(=O)[C@@H](NC(=O)/C(F)=C\C(C)C)C(C3CC3)C3CC3)cc1CN(C(C)C(F)(F)F)C(=O)C2` (mixture of isomers) [compound 254] and `C=C(F)C(=O)N[C@H](C(=O)Nc1cc2c(cn1)-c1c(n[nH]c1C)CC(=O)N(C(C)C(F)(F)F)C2)C(C1CC1)C1CC1` (mixture of isomers) [compound 257] cannot be ordered by IC50: ≤ 0.05 µM for the first, ≤ 0.05 µM for the second.

`CCn1nccc1C(=O)NC(C(=O)Nc1cc2c(cc1F)-c1c(n[nH]c1C)CCOC2)C1CCC(F)(F)CC1` (single isomer, unassigned) [compound 37a] and `Cc1[nH]nc2c1-c1cc(F)c(NC(=O)C(NC(=O)c3ccnn3C(C)C)C3CCC(F)(F)CC3)cc1COCC2` (single isomer, unassigned) [compound 38a] cannot be ordered by IC50: ≤ 0.05 µM for the first, ≤ 0.05 µM for the second.

`Cc1[nH]nc2c1-c1cc(F)c(NC(=O)[C@@H](NC(=O)c3ccnn3C(C)C[S+](C)[O-])C(C3CC3)C3CC3)cc1COCC2` (single isomer, unassigned) [compound 43a] and `Cc1[nH]nc2c1-c1cc(F)c(NC(=O)[C@@H](NC(=O)c3ccnn3[C@@H](C)CO)C(C3CC3)C3CC3)cc1COCC2` [compound 55] cannot be ordered by IC50: 0.05 to 0.15 µM for the first, ≤ 0.05 µM for the second.

`Cc1[nH]nc2c1-c1cc(F)c(NC(=O)[C@@H](NC(=O)c3ccnn3C(C)C[S+](C)[O-])C(C3CC3)C3CC3)cc1COCC2` (single isomer, unassigned) [compound 43b] and `Cc1[nH]nc2c1-c1cc(F)c(NC(=O)[C@@H](NC(=O)c3ccnn3C(F)F)C(C3CC3)C3CC3)cc1COCC2` [compound 83] fall in the same range of IC50: 0.05 to 0.15 µM for the first, 0.05 to 0.15 µM for the second.

`Cc1nonc1C(=O)N[C@H](C(=O)Nc1ccc2c(c1)COCCc1n[nH]c(C)c1-2)C(C1CC1)C1CC1` [compound 4] and `CCc1nonc1C(=O)N[C@H](C(=O)Nc1ccc2c(c1)COCCc1n[nH]c(C)c1-2)C(C1CC1)C1CC1` [compound 5] cannot be ordered by IC50: ≤ 0.05 µM for the first, ≤ 0.05 µM for the second.

`CCn1nccc1C(=O)N[C@H](C(=O)Nc1ccc2c(c1)CCOCc1n[nH]c(C)c1-2)C(C1CC1)C1CC1` [compound 14] and `Cc1[nH]nc2c1-c1ccc(NC(=O)[C@@H](NC(=O)c3ccnn3[C@@H](C)CO)C(C3CC3)C3CC3)cc1COCC2` [compound 51] cannot be ordered by IC50: 0.05 to 0.15 µM for the first, ≤ 0.05 µM for the second.

`[2H]C([2H])([2H])n1nccc1C(=O)N[C@H](C(=O)Nc1cc2c(cc1F)-c1c(n[nH]c1C)CCOC2)C(C1CC1)C1CC1` [compound 18] and `CO[C@@H](C)Cn1nccc1C(=O)N[C@H](C(=O)Nc1cc2c(cc1F)-c1c(n[nH]c1C)CCOC2)C(C1CC1)C1CC1` [compound 78] cannot be ordered by IC50: 0.05 to 0.15 µM for the first, ≤ 0.05 µM for the second.

`Cc1nonc1C(=O)N[C@H](C(=O)Nc1cc2c(cc1F)-c1c(n[nH]c1C)CCOC2)C(C1CC1)C1CC1` [compound 20] and `CCc1nonc1C(=O)N[C@H](C(=O)Nc1cc2c(cc1F)-c1c(n[nH]c1C)CCOC2)C(C1CC1)C1CC1` [compound 21] cannot be ordered by IC50: ≤ 0.05 µM for the first, ≤ 0.05 µM for the second.

First: CCn1nccc1C(=O)N[C@H](C(=O)Nc1cc2c(cc1Cl)-c1c[nH]nc1CCOC2)C(C1CC1)C1CC1 [compound 30]
Second: Cn1nccc1C(=O)N[C@H](C(=O)Nc1cc2c(cc1Cl)-c1c[nH]nc1CCOC2)C(C1CC1)C1CC1 [compound 31]
The IC50 of the first is lower: 0.05 to 0.15 µM for the first, 0.15 to 1 µM for the second.

`Cc1[nH]nc2c1-c1cc(F)c(NC(=O)[C@@H](NC(=O)c3ccnn3[C@@H](C)CO)[C@H]3CC[C@H](C)CC3)cc1COCC2` [compound 47] and `Cc1[nH]nc2c1-c1cc(F)c(NC(=O)[C@@H](NC(=O)c3ccnn3[C@@H](C)CO)C3CCCCC3)cc1COCC2` [compound 50] cannot be ordered by IC50: ≤ 0.05 µM for the first, 0.05 to 0.15 µM for the second.

`Cc1[nH]nc2c1-c1cc(F)c(NC(=O)[C@@H](NC(=O)c3ccnn3CCCO)C(C3CC3)C3CC3)cc1COCC2` [compound 56] and `Cc1[nH]nc2c1-c1cc(F)c(NC(=O)[C@@H](NC(=O)c3ccnn3CCCN(C)C)C(C3CC3)C3CC3)cc1COCC2` [compound 85] cannot be ordered by IC50: ≤ 0.05 µM for the first, 0.05 to 0.15 µM for the second.

`Cc1[nH]nc2c1-c1cc(F)c(NC(=O)[C@@H](NC(=O)c3ccnn3CCS(C)(=O)=O)C(C3CC3)C3CC3)cc1COCC2` [compound 63] and `Cc1[nH]nc2c1-c1cc(F)c(NC(=O)[C@@H](NC(=O)c3ccnn3CC(C)(C)C#N)C(C3CC3)C3CC3)cc1COCC2` [compound 77] cannot be ordered by IC50: ≤ 0.05 µM for the first, 0.05 to 0.15 µM for the second.

`Cc1[nH]nc2c1-c1cc(F)c(NC(=O)[C@@H](NC(=O)c3ccnn3C3CCC3)C(C3CC3)C3CC3)cc1COCC2` [compound 72] and `Cc1[nH]nc2c1-c1cc(F)c(NC(=O)[C@@H](NC(=O)c3ccnn3C3CCOCC3)C(C3CC3)C3CC3)cc1COCC2` [compound 74] cannot be ordered by IC50: ≤ 0.05 µM for the first, 0.05 to 0.15 µM for the second.

`Cc1[nH]nc2c1-c1cc(F)c(NC(=O)[C@@H](NC(=O)c3ccnn3[C@H]3CCOC3)C(C3CC3)C3CC3)cc1COCC2` [compound 73] and `Cc1[nH]nc2c1-c1cc(F)c(NC(=O)[C@@H](NC(=O)c3ccnn3CC3(C(F)(F)F)CC3)C(C3CC3)C3CC3)cc1COCC2` [compound 91] fall in the same range of IC50: 0.05 to 0.15 µM for the first, 0.05 to 0.15 µM for the second.

In the case of `Cc1[nH]nc2c1-c1cc(F)c(NC(=O)[C@@H](NC(=O)c3ccnn3CCCN3CCN(C)CC3)C(C3CC3)C3CC3)cc1COCC2` [compound 93], the IC50 is reported as 0.05 to 0.15 µM.
